Reference: ChEMBL document CHEMBL1201862, “PubChem BioAssay data set” (2004)
Calls of active or inactive are those of the source.

Legend:
[1] = biological target: G-protein coupled receptor 55 (Homo sapiens, UniProt Q9Y2T6); test: selective activators of receptor GPR55 – imaging, U2OS cells, beta-arrestin-GFP redistribution, primary screen (AID 1961); format: functional
[2] = biological target: T1, CAAX prenyl protease 2 (Saccharomyces cerevisiae S288c, UniProt Q03530); format: biochemical
T1 sequence (Q03530 whole entry): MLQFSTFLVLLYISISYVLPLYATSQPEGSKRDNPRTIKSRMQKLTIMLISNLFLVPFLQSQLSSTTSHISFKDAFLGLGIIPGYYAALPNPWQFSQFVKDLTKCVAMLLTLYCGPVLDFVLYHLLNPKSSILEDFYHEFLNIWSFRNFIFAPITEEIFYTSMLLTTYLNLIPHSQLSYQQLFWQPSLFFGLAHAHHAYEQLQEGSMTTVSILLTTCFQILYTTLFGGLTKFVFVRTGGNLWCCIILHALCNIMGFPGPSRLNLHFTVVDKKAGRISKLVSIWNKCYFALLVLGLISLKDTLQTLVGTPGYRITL

[3] = biological target: T2, Acyl-homoserine lactone acylase PvdQ (Pseudomonas aeruginosa (strain LESB58), UniProt Q9I194); test: PvdQ acylase enzyme activity blockers – biochemical, fluorescence, plate reader and imaging, cherry-picks, dose response (AID 493231)
T2 sequence (Q9I194 whole entry): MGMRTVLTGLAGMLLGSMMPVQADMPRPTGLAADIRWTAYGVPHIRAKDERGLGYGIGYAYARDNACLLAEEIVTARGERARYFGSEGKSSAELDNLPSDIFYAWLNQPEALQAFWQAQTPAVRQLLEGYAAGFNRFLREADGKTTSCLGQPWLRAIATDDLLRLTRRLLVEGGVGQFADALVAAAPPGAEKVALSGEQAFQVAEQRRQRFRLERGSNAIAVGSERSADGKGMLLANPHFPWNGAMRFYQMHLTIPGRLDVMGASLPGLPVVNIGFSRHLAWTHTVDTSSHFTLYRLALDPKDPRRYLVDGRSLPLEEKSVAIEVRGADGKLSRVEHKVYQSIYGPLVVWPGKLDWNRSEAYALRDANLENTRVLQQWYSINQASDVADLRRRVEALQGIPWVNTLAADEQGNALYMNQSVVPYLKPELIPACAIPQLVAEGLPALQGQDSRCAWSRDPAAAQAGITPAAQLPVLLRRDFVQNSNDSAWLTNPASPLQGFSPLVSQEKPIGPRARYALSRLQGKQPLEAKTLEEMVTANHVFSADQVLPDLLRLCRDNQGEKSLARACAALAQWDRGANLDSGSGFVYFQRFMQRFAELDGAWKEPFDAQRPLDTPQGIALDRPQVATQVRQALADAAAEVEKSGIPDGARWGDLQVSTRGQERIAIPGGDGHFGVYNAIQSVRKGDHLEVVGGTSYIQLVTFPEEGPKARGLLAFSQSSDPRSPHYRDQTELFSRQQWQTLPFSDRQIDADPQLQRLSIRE

[4] = biological target: Peroxisome proliferator-activated receptor gamma/Nuclear receptor coactivator 1 (Homo sapiens, UniProt P37231); test: (§1) TR-FRET dose response biochemical High Throughput Screening assay for agonists of the steroid receptor coactivator 1 (SRC-1) recruitment by the peroxisome proliferator-activated receptor gamma (PPAR gamma): non-selective agonists. [Related pubchem assays (depositor defined):AID1300, AID1808, AID504735, AID631]; format: protein assay
[5] = biological target: Peroxisome proliferator-activated receptor gamma/Nuclear receptor coactivator 3 (Homo sapiens, UniProt P37231); test: as §1, with “3 (SRC-3)” for “1 (SRC-1)”, “assays: 1301 (Confirmation screen.), 1048 (Primary screen.)]” for “assays (depositor defined):AID1300, AID1808, AID504735, AID631]”; format: functional
[6] = biological target: Peroxisome proliferator-activated receptor gamma/Nuclear receptor coactivator 2 (Homo sapiens, UniProt P37231); test: TR-FRET dose response biochemical High Throughput Screening assay for agonists of the steroid receptor coactivator 2 (SRC-2) recruitment by the peroxisome proliferator-activated receptor gamma (PPAR gamma): non-selective agonists. [Related pubchem assays: 1297, 1032 ]; format: functional
[7] = biological target: T3, Polyadenylate-binding protein 1 (Homo sapiens, UniProt P11940); test: MLLE binding blockers, Cy5 peptide tracer – biochemical, fluorescence polarization, Cy5-PAM2 peptide, secondary, miRNA deadenylation inhibitor project, dose response (AID 602260); format: functional; details: read-out: IC50_Mean
[8] = biological target: T3, Polyadenylate-binding protein 1; test: MLLE domain peptide-binding blockers, IC50 – biochemical, fluorescence polarization, FITC-PAM2 peptide, dose response (AID 602259); format: functional; details: read-out: IC50_Mean

T3 sequence (P11940 whole entry, the tested form may be a part): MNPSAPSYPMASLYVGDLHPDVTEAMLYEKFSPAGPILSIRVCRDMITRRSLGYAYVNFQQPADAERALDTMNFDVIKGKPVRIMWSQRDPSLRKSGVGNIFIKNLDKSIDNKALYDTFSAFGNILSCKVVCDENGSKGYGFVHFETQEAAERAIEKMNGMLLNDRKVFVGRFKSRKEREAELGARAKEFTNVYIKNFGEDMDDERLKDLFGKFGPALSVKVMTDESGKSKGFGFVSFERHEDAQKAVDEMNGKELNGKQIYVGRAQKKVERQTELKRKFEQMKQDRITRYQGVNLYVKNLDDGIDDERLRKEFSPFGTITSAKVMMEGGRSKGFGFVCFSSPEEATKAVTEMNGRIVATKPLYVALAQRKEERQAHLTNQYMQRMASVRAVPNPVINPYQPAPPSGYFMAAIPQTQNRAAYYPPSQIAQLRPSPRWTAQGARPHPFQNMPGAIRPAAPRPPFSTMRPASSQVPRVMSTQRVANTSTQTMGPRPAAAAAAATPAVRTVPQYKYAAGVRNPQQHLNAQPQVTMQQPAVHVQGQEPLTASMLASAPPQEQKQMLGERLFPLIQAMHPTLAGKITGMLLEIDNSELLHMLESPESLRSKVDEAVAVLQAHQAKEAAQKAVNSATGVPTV
Sequence of Peroxisome proliferator-activated receptor gamma/Nuclear receptor coactivator 3 (P37231 whole entry): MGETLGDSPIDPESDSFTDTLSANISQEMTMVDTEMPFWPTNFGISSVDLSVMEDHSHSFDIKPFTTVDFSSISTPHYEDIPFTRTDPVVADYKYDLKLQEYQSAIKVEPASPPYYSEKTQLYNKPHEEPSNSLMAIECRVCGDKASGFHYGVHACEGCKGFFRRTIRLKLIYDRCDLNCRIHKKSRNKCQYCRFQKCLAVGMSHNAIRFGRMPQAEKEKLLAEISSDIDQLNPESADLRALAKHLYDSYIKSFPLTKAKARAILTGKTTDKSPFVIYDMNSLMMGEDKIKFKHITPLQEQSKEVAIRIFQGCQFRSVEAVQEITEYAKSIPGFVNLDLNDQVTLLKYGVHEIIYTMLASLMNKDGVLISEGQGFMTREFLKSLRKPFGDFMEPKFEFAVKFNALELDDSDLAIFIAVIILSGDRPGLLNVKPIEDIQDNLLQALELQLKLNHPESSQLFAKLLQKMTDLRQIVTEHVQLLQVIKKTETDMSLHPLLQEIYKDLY
Sequence of Peroxisome proliferator-activated receptor gamma/Nuclear receptor coactivator 3 (Q9Y6Q9 whole entry, further chain): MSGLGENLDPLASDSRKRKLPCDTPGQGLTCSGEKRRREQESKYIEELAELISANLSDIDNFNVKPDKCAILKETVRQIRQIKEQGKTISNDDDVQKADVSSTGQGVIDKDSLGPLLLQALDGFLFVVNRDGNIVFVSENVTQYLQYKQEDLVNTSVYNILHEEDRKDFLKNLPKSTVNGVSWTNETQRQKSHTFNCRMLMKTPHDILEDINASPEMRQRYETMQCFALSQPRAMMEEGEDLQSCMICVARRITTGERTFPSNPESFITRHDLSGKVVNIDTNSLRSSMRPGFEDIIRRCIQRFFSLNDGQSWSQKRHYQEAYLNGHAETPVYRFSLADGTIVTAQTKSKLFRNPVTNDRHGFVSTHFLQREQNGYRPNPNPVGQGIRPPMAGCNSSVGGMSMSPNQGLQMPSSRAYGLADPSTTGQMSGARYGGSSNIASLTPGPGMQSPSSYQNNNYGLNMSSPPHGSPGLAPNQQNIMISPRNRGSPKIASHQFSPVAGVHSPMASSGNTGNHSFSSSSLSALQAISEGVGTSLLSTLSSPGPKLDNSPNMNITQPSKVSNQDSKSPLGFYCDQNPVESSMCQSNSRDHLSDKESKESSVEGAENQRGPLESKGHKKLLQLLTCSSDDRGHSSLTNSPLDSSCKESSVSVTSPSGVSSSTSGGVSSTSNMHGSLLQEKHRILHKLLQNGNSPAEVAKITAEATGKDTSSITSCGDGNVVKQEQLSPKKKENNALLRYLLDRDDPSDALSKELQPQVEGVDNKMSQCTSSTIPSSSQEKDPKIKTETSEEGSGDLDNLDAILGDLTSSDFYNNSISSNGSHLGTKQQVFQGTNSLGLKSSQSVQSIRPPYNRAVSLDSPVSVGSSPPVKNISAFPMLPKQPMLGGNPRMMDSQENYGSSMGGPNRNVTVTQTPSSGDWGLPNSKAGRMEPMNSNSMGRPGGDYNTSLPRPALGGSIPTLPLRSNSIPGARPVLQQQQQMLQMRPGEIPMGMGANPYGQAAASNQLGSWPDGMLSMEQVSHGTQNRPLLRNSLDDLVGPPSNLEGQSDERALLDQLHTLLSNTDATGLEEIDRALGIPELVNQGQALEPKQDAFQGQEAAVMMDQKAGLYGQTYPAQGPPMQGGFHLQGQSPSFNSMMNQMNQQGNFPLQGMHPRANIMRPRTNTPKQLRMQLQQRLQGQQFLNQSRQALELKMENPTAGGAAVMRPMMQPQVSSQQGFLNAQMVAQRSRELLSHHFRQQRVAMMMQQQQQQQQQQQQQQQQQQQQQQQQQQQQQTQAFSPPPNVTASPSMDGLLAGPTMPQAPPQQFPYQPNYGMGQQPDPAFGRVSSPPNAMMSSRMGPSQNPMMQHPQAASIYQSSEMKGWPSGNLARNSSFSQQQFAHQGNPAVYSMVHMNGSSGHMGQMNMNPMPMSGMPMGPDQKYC
Sequence of Peroxisome proliferator-activated receptor gamma/Nuclear receptor coactivator 2 (P37231 whole entry): as the sequence (P37231 whole entry) above
Sequence of Peroxisome proliferator-activated receptor gamma/Nuclear receptor coactivator 2 (Q15596 whole entry, further chain): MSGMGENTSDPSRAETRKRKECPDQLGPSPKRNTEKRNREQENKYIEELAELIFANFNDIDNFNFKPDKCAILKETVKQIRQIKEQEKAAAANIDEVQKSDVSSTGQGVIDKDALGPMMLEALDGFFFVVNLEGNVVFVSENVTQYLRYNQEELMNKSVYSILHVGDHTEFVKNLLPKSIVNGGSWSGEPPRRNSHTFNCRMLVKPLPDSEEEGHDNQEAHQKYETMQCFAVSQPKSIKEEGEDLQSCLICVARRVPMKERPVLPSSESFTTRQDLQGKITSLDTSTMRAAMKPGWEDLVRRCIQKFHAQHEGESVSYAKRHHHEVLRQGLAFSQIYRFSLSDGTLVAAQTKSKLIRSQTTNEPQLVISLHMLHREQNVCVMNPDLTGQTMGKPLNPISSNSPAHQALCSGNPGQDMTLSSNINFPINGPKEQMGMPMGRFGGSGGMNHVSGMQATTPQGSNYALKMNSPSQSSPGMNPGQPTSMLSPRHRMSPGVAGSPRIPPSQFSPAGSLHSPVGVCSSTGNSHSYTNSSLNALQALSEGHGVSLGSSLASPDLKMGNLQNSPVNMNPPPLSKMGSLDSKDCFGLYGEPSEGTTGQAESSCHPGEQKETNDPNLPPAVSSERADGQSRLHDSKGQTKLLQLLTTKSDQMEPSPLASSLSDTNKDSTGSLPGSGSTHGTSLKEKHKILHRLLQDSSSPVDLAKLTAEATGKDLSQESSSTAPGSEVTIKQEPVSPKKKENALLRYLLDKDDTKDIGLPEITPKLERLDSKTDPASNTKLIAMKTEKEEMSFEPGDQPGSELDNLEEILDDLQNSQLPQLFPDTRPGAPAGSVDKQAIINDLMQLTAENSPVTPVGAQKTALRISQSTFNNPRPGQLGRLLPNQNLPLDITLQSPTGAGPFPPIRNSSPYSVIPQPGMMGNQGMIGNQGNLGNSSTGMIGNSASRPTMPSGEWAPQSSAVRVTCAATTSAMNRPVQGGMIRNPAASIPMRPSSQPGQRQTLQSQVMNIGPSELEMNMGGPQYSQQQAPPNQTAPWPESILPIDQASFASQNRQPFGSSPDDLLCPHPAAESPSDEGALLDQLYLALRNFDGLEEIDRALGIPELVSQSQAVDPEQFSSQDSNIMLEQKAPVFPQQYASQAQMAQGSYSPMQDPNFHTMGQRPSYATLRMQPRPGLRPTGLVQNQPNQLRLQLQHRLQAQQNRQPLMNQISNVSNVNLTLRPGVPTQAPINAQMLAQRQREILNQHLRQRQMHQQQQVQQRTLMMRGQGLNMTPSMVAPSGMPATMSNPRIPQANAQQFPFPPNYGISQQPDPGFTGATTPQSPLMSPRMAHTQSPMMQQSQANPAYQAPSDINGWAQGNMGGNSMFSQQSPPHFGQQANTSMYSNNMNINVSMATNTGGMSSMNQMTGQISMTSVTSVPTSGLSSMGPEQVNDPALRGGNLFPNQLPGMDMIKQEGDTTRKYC
Sequence of G-protein coupled receptor 55 (Q9Y2T6 whole entry): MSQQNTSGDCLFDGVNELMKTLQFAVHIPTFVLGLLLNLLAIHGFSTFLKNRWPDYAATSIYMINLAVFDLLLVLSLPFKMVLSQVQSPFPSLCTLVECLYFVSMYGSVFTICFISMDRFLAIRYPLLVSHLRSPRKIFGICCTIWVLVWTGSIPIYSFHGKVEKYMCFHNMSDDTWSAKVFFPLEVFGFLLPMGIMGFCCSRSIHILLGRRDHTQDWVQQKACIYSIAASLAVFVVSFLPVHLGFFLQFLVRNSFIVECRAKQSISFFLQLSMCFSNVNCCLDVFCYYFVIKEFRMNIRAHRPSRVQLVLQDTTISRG

EC50 [4] | EC50 [5] | EC50 [6] | SMILES | further results
 |  |  | CC(=C/c1ccccc1)/C=N/NC(=O)c1nnn(-c2nonc2N)c1CN1CCC(C)CC1 | EC50 [1]: 0.601 µM (active)
 |  |  | COc1cccc(-c2c(C(=O)N/N=C/c3sccc3C)nnn2-c2nonc2N)c1 | AC50 [2]: 7.8 µM (active)
 |  |  | CCOC(=O)c1ccc(-c2ccc(CO)o2)cc1 | AC50 [3]: 11.6 µM (active)
10.7 µM (inactive) | > 79.4 µM (not active) | 12.5 µM (not active) | CCOC(=O)c1sc(=S)n(-c2ccccc2Cl)c1SC | IC50 [7]: > 66 µM (inactive); IC50 [8]: > 66 µM (inactive)
> 79.4 µM (inactive) | > 79.4 µM (not active) | > 79.4 µM (not active) | Cc1ccc2nc(NC(=O)CSc3ncnc4c3oc3ccccc34)sc2c1 | 
